By IC50 is commonly meant the midpoint of a concentration-inhibition curve.

Data on five compounds can be found in patent US6861429B2, “2,3-diaryl-pyrazolo[1,5-b]pyridazines derivatives, their preparation and their use as cyclooxygenase 2 (COX-2) inhibitors” (SmithKline Beecham Corporation, priority 1997, dated 2005).

One assay deals with T1, human COX-2 (Homo sapiens, UniProt P35354).
T1 construct: expressed in transfected cells
T1 sequence (P35354 18-604): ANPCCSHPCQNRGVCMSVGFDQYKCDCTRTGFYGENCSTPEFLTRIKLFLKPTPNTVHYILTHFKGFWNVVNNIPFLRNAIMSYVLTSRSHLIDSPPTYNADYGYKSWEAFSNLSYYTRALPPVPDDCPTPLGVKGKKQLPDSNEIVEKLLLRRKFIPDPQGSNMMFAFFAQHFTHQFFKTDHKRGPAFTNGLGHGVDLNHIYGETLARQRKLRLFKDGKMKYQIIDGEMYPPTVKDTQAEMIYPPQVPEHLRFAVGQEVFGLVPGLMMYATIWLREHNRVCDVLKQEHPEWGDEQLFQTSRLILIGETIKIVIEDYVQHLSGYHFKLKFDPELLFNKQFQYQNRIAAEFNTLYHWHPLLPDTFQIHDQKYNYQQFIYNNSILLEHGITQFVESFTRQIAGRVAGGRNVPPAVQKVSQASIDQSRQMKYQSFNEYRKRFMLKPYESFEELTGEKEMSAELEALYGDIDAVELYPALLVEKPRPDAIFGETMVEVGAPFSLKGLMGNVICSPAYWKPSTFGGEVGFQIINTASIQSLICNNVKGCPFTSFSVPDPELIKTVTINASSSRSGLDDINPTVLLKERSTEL
As to the kind of experiment: Inhibition of PGE2 release in COS cells stably transfected with human COX-2. It counts as cell-based. Particulars: 30 μM arachidonic acid, PGE2 release by enzyme immunoassay.

In a further assay the target is T2, human COX-1 (Homo sapiens, UniProt P23219).
T2 construct: expressed in transfected cells
As to the kind of experiment: Inhibition of PGE2 release in COS cells stably transfected with human COX-1. It counts as cell-based. Particulars: 30 μM arachidonic acid, PGE2 release by enzyme immunoassay.

T2 sequence (P23219 24-599): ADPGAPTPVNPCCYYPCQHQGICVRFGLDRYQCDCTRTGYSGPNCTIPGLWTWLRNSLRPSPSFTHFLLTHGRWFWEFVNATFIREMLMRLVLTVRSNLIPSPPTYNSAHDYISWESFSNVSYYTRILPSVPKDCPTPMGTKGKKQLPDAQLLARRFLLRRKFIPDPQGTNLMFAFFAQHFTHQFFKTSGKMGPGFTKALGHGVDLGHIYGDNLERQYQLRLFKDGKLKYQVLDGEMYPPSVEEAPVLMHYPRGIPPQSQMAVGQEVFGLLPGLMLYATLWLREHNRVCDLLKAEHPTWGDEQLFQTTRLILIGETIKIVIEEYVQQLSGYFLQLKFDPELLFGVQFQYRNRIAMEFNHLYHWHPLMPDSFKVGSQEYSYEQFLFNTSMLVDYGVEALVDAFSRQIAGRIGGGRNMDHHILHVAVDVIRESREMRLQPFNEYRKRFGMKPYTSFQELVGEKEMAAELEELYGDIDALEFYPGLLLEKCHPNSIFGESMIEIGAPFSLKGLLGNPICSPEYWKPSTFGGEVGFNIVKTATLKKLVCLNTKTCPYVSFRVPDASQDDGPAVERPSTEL
Method for human COX-1: (§1) Inhibitory activity against human COX-1and COX-2was assessed in COS cells which had been stably transfected with cDNA for human COX-1and human COX-2. 24Hours prior to experiment, COS cells were transferred from the 175 cm^2flasks in which they were grown, onto 24-well cell culture plates using the following procedure. The incubation medium (Dulbecco's modified eagles medium (DMEM) supplemented with heat-inactivated foetal calf serum (10% v/v), penicillin (100 IU/ml), streptomycin (100 μg/ml) and geneticin (600 μg/ml)) was removed from a flask of confluent cells (1flask at confluency contains approximately 1×10^7 cells). 10 ml of phosphate buffered saline (PBS) was added to the flask to wash the cells. Having discarded the PBS, cells were then rinsed in 10 ml trypsin for 20 seconds, after which the trypsin was removed and the flask placed in an incubator (37°) for 1-2 minutes until cells became detached from the flask. The flask was then removed from the incubator and cells resuspended in 10 ml of fresh incubation medium. The contents of the flask was transferred to a 250 ml sterile container and the volume of incubation medium subsequently made up to 100 ml. […] If more than 1 flask of cells were required, the cells from the individual flasks were combined before being dispensed into the 24-well plates.
(§2) Following the overnight incubation, the incubation medium was completely removed from the 24-well cell culture plates and replaced with 250 μl fresh DMEM (37° C.). The test compounds were made up to 250× the required test concentration in DMSO and were added to the wells in a volume of 1 μl. […] Plates were then incubated for a further 15 minutes, after which the incubation medium was removed from each well of the plates and stored at −20° C., prior to determination of prostaglandin E2(PGE2) levels using enzyme immunoassay. […] The selectivity ratio of inhibition of COX-1 versus COX-2 was calculated by comparing respective IC50 values.
Method for human COX-2: as §1, §2

`CS(=O)(=O)c1ccc(-c2c(-c3ccc(OC(F)F)cc3)nn3ncccc23)cc1` [Example 5, 2-(4-Difluoromethoxy-phenyl)-3-(4-methanesulfonyl-phenyl)-pyrazolo[1,5-b]pyridazine]: the IC50 was 21 nM against human COX-2 and more than 100000 nM on human COX-1.

Regarding `CS(=O)(=O)c1ccc(-c2c(-c3ccc(F)cc3)nn3nc(OC(F)F)ccc23)cc1` [1(v), 6-Difluoromethoxy-2-(4-fluoro-phenyl)-3-(4-methanesulfonyl-phenyl)-pyrazolo[1,5-b]pyridazine], the IC50 on human COX-2 was 35 nM; against human COX-1, more than 100000 nM.

At human COX-1, `CCOc1ccc(-c2nn3ncccc3c2-c2ccc(S(C)(=O)=O)cc2)cc1` [3(ii), 2-(4-Ethoxy-phenyl)-3-(4-methanesulfonyl-phenyl)-pyrazolo[1,5-b]pyridazine] gave an IC50 of more than 100000 nM.

For `CS(=O)(=O)c1ccc(-c2c(-c3cccc(F)c3)nn3nc(OC(F)F)ccc23)cc1` [7(viii), 6-Difluoromethoxy-2-(3-fluoro-phenyl)-3-(4-methanesulfonyl-phenyl)-pyrazolo[1,5-b]pyridazine], the IC50 was 16 nM against human COX-2 and more than 55200 nM against human COX-1.

`COc1ccc(-c2nn3ncccc3c2-c2ccc(S(C)(=O)=O)cc2)cc1` [2(ii), 3-(4-Methanesulfonyl-phenyl)-2-(4-methoxy-phenyl)-pyrazolo[1,5-b]pyridazine]: the IC50 on human COX-2 is less than 10 nM.
